Measurements reported in patent publication US20240269298A1, “PHOSPHONYL DERIVATIVE, AND COMPOSITION AND PHARMACEUTICAL APPLICATION THEREOF” (XIZANG HAISCO PHARMACEUTICAL CO., LTD., priority 2021, published 2024).
Where two headings read alike, the source gives them in different places.

How the values were obtained:
[1] = test system: NCI-H1975 (EGFR-L858R-T790M) cells; experiment: Inhibitory activity on proliferation of NCI-H1975 (EGFR-L858R-T790M) cells (CTG, 72 h); assay type: cell-based; conditions: Homo sapiens
Method in brief: (§1)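 IC50 values come from S-shaped dose-survival fits of CTG signal expressed as % of vehicle. Compound exposure lasted 72 h at 37 °C with 0.1% DMSO; seeding was 3000 A431 cells/well in DMEM+10% FBS and 1000 NCI-H1975 cells/well in RPMI1640+10% FBS.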

[2] = molecular target: T1, EGFR protein in NCI-H1975 EGFR-L858R-T790M-C797S cells (Homo sapiens, UniProt P00533, C797S/L858R/T790M); experiment: Degradation activity on EGFR protein in NCI-H1975 EGFR-L858R-T790M-C797S cells, Method II (western blot, 48 h); assay type: cell-based; conditions: 48 h incubation, EGFR protein relative to DMSO control
T1 construct: expressed in transfected cells; host or cells: NCI-H1975 EGFR-L858R-T790M-C797S (kept under hygromycin selection)
T1 sequence (P00533 25-1210 T790M/C797S/L858R): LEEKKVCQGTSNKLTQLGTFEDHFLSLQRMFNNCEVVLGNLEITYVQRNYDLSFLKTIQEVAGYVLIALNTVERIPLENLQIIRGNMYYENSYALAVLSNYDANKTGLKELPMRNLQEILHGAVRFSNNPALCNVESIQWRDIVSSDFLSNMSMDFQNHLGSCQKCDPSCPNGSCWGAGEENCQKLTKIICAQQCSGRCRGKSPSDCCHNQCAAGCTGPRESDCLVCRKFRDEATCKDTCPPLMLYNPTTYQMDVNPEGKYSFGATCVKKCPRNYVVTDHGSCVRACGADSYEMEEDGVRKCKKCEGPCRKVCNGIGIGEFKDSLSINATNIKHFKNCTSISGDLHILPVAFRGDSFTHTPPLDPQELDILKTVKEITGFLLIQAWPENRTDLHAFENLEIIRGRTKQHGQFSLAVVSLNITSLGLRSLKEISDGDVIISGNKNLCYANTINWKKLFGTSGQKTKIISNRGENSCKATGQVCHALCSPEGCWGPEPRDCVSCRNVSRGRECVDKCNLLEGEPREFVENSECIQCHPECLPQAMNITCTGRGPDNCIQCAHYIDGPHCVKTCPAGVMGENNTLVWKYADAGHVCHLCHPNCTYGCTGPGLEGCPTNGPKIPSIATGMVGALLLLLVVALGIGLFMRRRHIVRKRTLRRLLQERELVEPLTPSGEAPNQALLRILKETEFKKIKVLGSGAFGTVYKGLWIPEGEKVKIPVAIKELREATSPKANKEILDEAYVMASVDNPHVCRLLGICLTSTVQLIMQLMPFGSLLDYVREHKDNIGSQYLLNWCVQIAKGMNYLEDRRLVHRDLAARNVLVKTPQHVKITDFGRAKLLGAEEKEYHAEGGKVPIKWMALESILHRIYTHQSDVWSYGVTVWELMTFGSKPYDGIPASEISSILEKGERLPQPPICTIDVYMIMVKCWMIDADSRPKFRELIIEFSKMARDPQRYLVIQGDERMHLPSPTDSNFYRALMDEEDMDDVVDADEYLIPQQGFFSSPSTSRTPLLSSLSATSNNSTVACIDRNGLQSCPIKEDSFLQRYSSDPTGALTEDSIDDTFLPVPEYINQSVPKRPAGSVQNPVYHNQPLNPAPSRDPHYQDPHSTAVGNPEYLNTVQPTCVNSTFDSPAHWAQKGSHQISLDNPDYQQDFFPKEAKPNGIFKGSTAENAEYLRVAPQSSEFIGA
Protocol: (§2) Protein sample preparation: NCI-H1975 EGFR-L858R-T790M-C797S cells were cultured in an incubator at 37° C. with 5% CO2, and the culture medium was RPMI1640+10% FBS+100 μg/mL hygromycin. The cells in the logarithmic phase were collected, and the cell suspension was adjusted to an appropriate concentration with a hygromycin-free culture medium, plated on a 6-well plate at a density of 350000 cells/well and a volume of 2 mL, and cultured overnight in an incubator at 37° C. with 5% CO2. The next day, the compounds at different concentrations were added. DMSO control wells were provided, wherein the concentration of DMSO in all wells was 0.1%. The 6-well plate was cultured in an incubator at 37° C. with 5% CO2 for 48 h, and then 30 μL of RIPA lysates (Beyotime, Cat. P0013B) containing protease inhibitors (Beyotime, Cat. P0013B) were added. The mixtures were lysed on ice for 30 min. Centrifugation was carried out at 13000 rpm/min at 4° C. for 20 minutes to collect protein supernatant samples, and protein quantification was performed by the BCA method. Western Blot detection samples were prepared.
(§3) Western blot detection: 20 μg of protein samples were added to each well, subjected to polyacrylamide gel electrophoresis and transferred to a membrane, and then diluted anti-EGFR (CST, Cat. 4267S) and […] (Kangchen, Cat. KC-5G4) antibodies were added and incubated overnight at 4° C. After washing the membrane, diluted goat anti-rabbit (Licor, Cat. 926-32211) and goat anti-mouse (Licor, Cat. 926-68070) antibodies were added and incubated in the dark for 45 min. Scanning and detection at wavelengths of 700 nm and 800 nm were performed with a far-infrared imaging system (Odyssey).
(§4) According to formula (3), the expression level of EGFR protein in the cells relative to the DMSO control group was calculated after incubation with different concentrations of compounds. wherein EGFRcompound was the fluorescence value of EGFR protein after incubation with compounds, and EGFRvehicle was the fluorescence value of EGFR protein in the DMSO control group. Using the Origin 9.2 software, the drug concentration DC50 values when the expression level of EGFR protein was 50% relative to the DMSO control group were calculated.

[3] = test system: NCI-H1975 EGFR-L858R-T790M-C797S cells; experiment: Inhibitory activity on proliferation of NCI-H1975 EGFR-L858R-T790M-C797S cells (CellTiter-Glo, 72 h); assay type: cell-based; conditions: Homo sapiens
Method in brief: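 Cells (1500/well) exposed to graded compound concentrations for 72 h at 37 °C in hygromycin-free RPMI1640 + 10% FBS, 0.1% DMSO vehicle. Viability by CellTiter-Glo luminescence relative to vehicle; IC50 from nonlinear sigmoidal dose-survival fit.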

[4] = test system: A431 (EGFR-WT) cells; experiment: Inhibitory activity on proliferation of A431 (EGFR-WT) cells (CTG, 72 h); assay type: cell-based; conditions: Homo sapiens, A-431
Method in brief: as §1

[5] = Pharmacokinetic test in mice; assay type: in vivo; conditions: male, ICR, mouse, po, administration i.g. (10 mg/kg), plasma
Method in brief: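 Male ICR mice (20-25 g), fasted 12-14 h before dosing and fed 4 h after, received a single intravenous or intragastric dose. Orbital plasma sampled from 0 to 24 h (5 min-24 h points); LC-MS/MS quantitation for PK parameters and bioavailability.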

[6] = molecular target: T1, EGFR protein in NCI-H1975 EGFR-L858R-T790M-C797S cells; experiment: Degradation activity on EGFR protein in NCI-H1975 EGFR-L858R-T790M-C797S cells, Method I (western blot, 72 h); assay type: cell-based; conditions: 72 h incubation, EGFR protein relative to DMSO control
Protocol: as §2, with “200000” for “350000”, “72” for “48”, “min” for “minutes”, “Samples for western blot” for “Western Blot”, “detection” for “detection samples”
as §3, §4

[7] = read-out: IC50 (value in brackets)

Compound	IC50 ([1]; read-out: IC50 (class symbol))	IC50 [1, 7]	DC50 [2]	IC50 ([3]; read-out: IC50 (class symbol))	IC50 ([3]; read-out: IC50 (value))	IC50 [4]	AUC(0-t) [5]	AUC [5]	half-life [5]	DC50 [6]
COc1cc(N2CCC(CN3CCN(c4ccc5c(c4)C(=O)N(C4CCC(=O)NC4=O)C5=O)CC3)CC2)c(-c2cnn(C)c2)cc1Nc1ncc(Cl)c(Nc2ccc(-c3ccccc3F)cc2P(C)(C)=O)n1 (stereo not shown) [Compound 102, 5-(4-((1-(4-((5-chloro-4-((3-(dimethylphosphoryl)-2′-fluoro-[1,1′-biphenyl]-4-yl)amino)pyrimidin-2-yl)amino)-5-methoxy-2-(1-methyl-1H-pyrazol-4-yl)phenyl)piperidin-4-yl)methyl)piperazin-1-yl)-2-(2,6-dioxopiperidin-3-yl)isoindoline-1,3-dione]	100 to 500 nM	150 nM	< 100 nM	< 200 nM	152 nM	≥ 10000 nM		87900 ng·h/mL	9.49 h	
COc1cc(N2CCN(C[C@@H]3CCN(c4ccc5c(c4)C(=O)N(C4CCC(=O)NC4=O)C5=O)C3)CC2)c(-c2cnn(C)c2)cc1Nc1ncc(Br)c(Nc2ccc(-c3ccccc3F)cc2P(C)(C)=O)n1 (stereo partly drawn) [Compound 116, 5-((S)-3-((4-(4-((5-bromo-4-((3-(dimethylphosphoryl)-2′-fluoro-[1,1′-biphenyl]-4-yl)amino)pyrimidin-2-yl)amino)-5-methoxy-2-(1-methyl-1H-pyrazol-4-yl)phenyl)piperazin-1-yl)methyl)pyrrolidin-1-yl)-2-(2,6-dioxopiperidin-3-yl)isoindoline-1,3-dione]	< 100 nM	94 nM	< 100 nM			≥ 10000 nM				
COc1cc(N2CCC(N3CCN(c4ccc5c(c4)C(=O)N(C4CCC(=O)NC4=O)C5=O)CC3)CC2)c(-c2cnn(C)c2)cc1Nc1ncc(Br)c(Nc2ccc(C3CC3)cc2P(C)(C)=O)n1 (stereo not shown) [Compound 112, 5-(4-(1-(4-((5-bromo-4-((4-cyclopropyl-2-(dimethylphosphoryl)phenyl)amino)pyrimidin-2-yl)amino)-5-methoxy-2-(1-methyl-1H-pyrazol-4-yl)phenyl)piperidin-4-yl)piperazin-1-yl)-2-(2,6-dioxopiperidin-3-yl)isoindoline-1,3-dione]	< 100 nM	83 nM	< 100 nM	< 200 nM	127 nM	≥ 10000 nM				
COc1cc(N2CCN(C[C@@H]3CCN(c4ccc5c(c4)C(=O)N(C4CCC(=O)NC4=O)C5=O)C3)CC2)c(-c2cnn(C)c2)cc1Nc1ncc(Br)c(Nc2ccc(-c3ccccc3)cc2P(C)(C)=O)n1 (stereo partly drawn) [Compound 103, 5-((S)-3-((4-(4-((5-bromo-4-((3-(dimethylphosphoryl)-[1,1′-biphenyl]-4-yl)amino)pyrimidin-2-yl)amino)-5-methoxy-2-(1-methyl-1H-pyrazol-4-yl)phenyl)piperazin-1-yl)methyl)pyrrolidin-1-yl)-2-(2,6-dioxopiperidin-3-yl)isoindoline-1,3-dione]	< 100 nM	61 nM	< 100 nM	< 200 nM	101 nM	≥ 10000 nM	34700 ng·h/mL			
COc1cc(N2CCC(N3CCN(CC4CCN(c5ccc6c(c5)C(=O)N(C5CCC(=O)NC5=O)C6=O)CC4)CC3)CC2)c(-c2cnn(C)c2)cc1Nc1ncc(Br)c(Nc2ccc(-c3ccccc3F)cc2P(C)(C)=O)n1 (stereo not shown) [Compound 54, 5-(4-((4-(1-(4-((5-bromo-4-((3-(dimethylphosphoryl)-2′-fluoro-[1,1′-biphenyl]-4-yl)amino)pyrimidin-2-yl)amino)-5-methoxy-2-(1-methyl-1H-pyrazol-4-yl)phenyl)piperidin-4-yl)piperazin-1-yl)methyl)piperidin-1-yl)-2-(2,6-dioxopiperidin-3-yl)isoindoline-1,3-dione]	< 100 nM	69 nM		< 200 nM	56 nM	≥ 10000 nM	29800 ng·h/mL			< 100 nM

Now from value to molecule:

IC50 ([1]; read-out: IC50 (class symbol))	IC50 [1, 7]	DC50 [2]	IC50 ([3]; read-out: IC50 (class symbol))	IC50 ([3]; read-out: IC50 (value))	IC50 [4]	AUC(0-t) [5]	AUC [5]	half-life [5]	DC50 [6]	Compound
< 100 nM	54 nM	< 100 nM	< 200 nM	82 nM	≥ 10000 nM	47300 ng·h/mL				COc1cc(N2CCN(C[C@H]3CCN(c4ccc5c(c4)C(=O)N(C4CCC(=O)NC4=O)C5=O)C3)CC2)c(-c2cnn(C)c2)cc1Nc1ncc(Br)c(Nc2ccc(-c3ccccc3)cc2P(C)(C)=O)n1 (stereo partly drawn) [Compound 104, 5-((R)-3-((4-(4-((5-bromo-4-((3-(dimethylphosphoryl)-[1,1′-biphenyl]-4-yl)amino)pyrimidin-2-yl)amino)-5-methoxy-2-(1-methyl-1H-pyrazol-4-yl)phenyl)piperazin-1-yl)methyl)pyrrolidin-1-yl)-2-(2,6-dioxopiperidin-3-yl)isoindoline-1,3-dione]
< 100 nM	68 nM	< 100 nM			≥ 10000 nM					COc1cc(N2CCC(N3CCN(c4ccc5c(c4)C(=O)N(C4CCC(=O)NC4=O)C5=O)CC3)CC2)c(-c2cnn(C)c2)cc1Nc1ncc(Cl)c(Nc2ccc(C3CC3)cc2P(C)(C)=O)n1 (stereo not shown) [Compound 113, 5-(4-(1-(4-((5-chloro-4-((4-cyclopropyl-2-(dimethylphosphoryl)phenyl)amino)pyrimidin-2-yl)amino)-5-methoxy-2-(1-methyl-1H-pyrazol-4-yl)phenyl)piperidin-4-yl)piperazin-1-yl)-2-(2,6-dioxopiperidin-3-yl)isoindoline-1,3-dione]
< 100 nM	52 nM	< 100 nM			≥ 10000 nM		81500 ng·h/mL	4.53 h		COc1cc(N2CCC(CN3CCN(c4ccc5c(c4)C(=O)N(C4CCC(=O)NC4=O)C5=O)CC3)CC2)c(-c2cnn(C)c2)cc1Nc1ncc(Cl)c(Nc2ccccc2P(C)(C)=O)n1 (stereo not shown) [Compound 109, 5-(4-((1-(4-((5-chloro-4-((2-(dimethylphosphoryl)phenyl)amino)pyrimidin-2-yl)amino)-5-methoxy-2-(1-methyl-1H-pyrazol-4-yl)phenyl)piperidin-4-yl)methyl)piperazin-1-yl)-2-(2,6-dioxopiperidin-3-yl)isoindoline-1,3-dione]
